Reference: ChEMBL document CHEMBL1136622, “Discovery of the first antibacterial small molecule inhibitors of MurB” (Bioorg Med Chem Lett, 2003)
In brackets after ≈: the same amount, converted by molar mass.

Legend:
[1] = In vitro inhibitory concentration required against Mur B enzyme was determined; set-up: species or system Staphylococcus aureus
Staphylococcus aureus = assay: Antibacterial activity against Staphylococcus aureus A9537; type: functional

CCCC[C@@H](C(=O)O)N1C(=O)C(CC(=O)NCCc2ccccc2Cl)SC1c1cccc(Oc2ccc(C(C)(C)C)cc2)c1 (some centres not stated)
IC50 [1]: 12 µM

CCCC[C@@H](C(=O)OC)n1c(-c2cccc(Oc3ccc(C(C)(C)C)cc3)c2)cn(CC(=O)O)c1=O
IC50 [1]: > 101 µM

CCCC[C@@H](C(=O)O)n1c(-c2cccc(Oc3ccc(C(C)(C)C)cc3)c2)cn(CC(=O)NCc2ccc(Cl)c(Cl)c2)c1=O
MIC (Staphylococcus aureus): 4 µg/mL (≈ 6.26 µM) | IC50 [1]: 15 µM

CCCC[C@@H](C(=O)O)n1c(-c2cccc(Oc3ccc(C(C)(C)C)cc3)c2)cnc1O
IC50 [1]: > 118 µM

CCCC[C@@H](C(=O)O)n1c(-c2cccc(Oc3ccc(C(C)(C)C)cc3)c2)cn(CC(=O)NCCc2ccccc2Cl)c1=O
MIC (Staphylococcus aureus): 4 µg/mL (≈ 6.47 µM) | IC50 [1]: 25 µM

C=CCn1cc(-c2cccc(Oc3ccc(C(C)(C)C)cc3)c2)n([C@@H](CCCC)C(=O)O)c1=O
MIC (Staphylococcus aureus): 4 µg/mL (≈ 8.65 µM) | IC50 [1]: 40 µM

CCCC[C@@H](C(=O)O)n1c(-c2cccc(Oc3ccc(C(C)(C)C)cc3)c2)cn(C)c1=O
IC50 [1]: > 115 µM

CCCC[C@@H](C(=O)O)n1c(-c2cccc(Oc3ccc(C(C)(C)C)cc3)c2)cn(Cc2ccccc2)c1=O
MIC (Staphylococcus aureus): 2 µg/mL (≈ 3.9 µM) | IC50 [1]: 16 µM
